Measurements reported in patent US10517964B2, “Optical imaging probes, optical imaging systems, methods of optical imaging, and methods of using optical imaging probes” (priority 2011, dated 2019).

How the values were obtained:
[1] = tested on: C6-fluc tumors; experiment: in vivo radioactive OI and microPET of mice bearing C6-fluc glioma
Protocol: [^18F]FDG has been widely used for imaging tumor metabolism^2,13,14, and Na^18F can accumulate in the bone^14. In this study, a group of mice (n=3) were implanted with firefly luciferase (fluc) transfected rat C6 glioma (C6-fluc). A day prior to the radioactive imaging, the mice were given with luciferin and bioluminescence OI was performed to verify the presence of tumor (FIG. 1.3a). Then [^18F]FDG was injected to the mice bearing C6-fluc glioma and imaged sequentially with IVIS Spectrum (FIG. 1.3b) and microPET (FIG. 1.3c). […] High imaging signals from bladder and brain were also observed by both modalities. But heart was hardly visible in the radioactive OI because it localizes deep inside of the mice body. After we sacrificed and open the thorax of the mice, the heart could be easily identified (FIG. 1.3d, yellow arrow). To further characterize the distribution of [^18F]FDG using radioactive OI, tumors and other normal organs and tissues were removed from the mice sacrificed and subjected to IVIS Spectrum imaging.
Quantitative analysis of both radioactive OI and microPET images was performed. The OI intensities in the tumor and the normal tissue as a function of time for [^18F]FDG was depicted in FIG. 1.3f, while the radioactivity accumulation in tumor and muscle over time was shown in FIG. 1.3g. […] Finally, regression analysis was performed for the tumor uptakes obtained from two imaging modalities, in order to further evaluate the quantitative analysis data obtained from radioactive OI. Good correlation was seen between the radioactive OI signal intensities and microPET images derived tumor uptakes (FIG. 1.3h, r^2 over 0.90 for the analyses). […]
Radioactive optical imaging: In vivo radioactive OI was also performed with an IVIS Spectrum system. […] Images were acquired and analyzed using Living Image 3.0 software (Caliper life sciences, Hopkinton, Mass.). Quantification of Radioactive OI images was corrected in accordance with radionuclides' respective physical decay properties. […]

[2] = tested on: C6 glioma tumor; experiment: Cerenkov luminescence imaging with 6 mm fiber optic bundle in mice bearing C6 glioma; assay type: in vivo; settings: n=4
From the text: Typical optical endoscopy imaging system includes an endoscope (usually made out of optical fibers and/or optical lenses such as grin/rod lenses), a white light source, and a CCD camera that is connected to the computer monitor. […] The subject “S” was placed […] the field of view (FOV) of the imaging system. The input end of the OF was placed close to the subject “S”. The output end of the “OF” faced the CCD camera such that the image transmitted by the output end was imaged on to the CCD camera using a relay lens system. The optical signal was normalized to photons per second per centimeter square per steradian (p/s/cm^2/sr). Identical settings were used for both in vitro and living mouse experiments.
^18F-FDG was produced by the Radiochemistry Facility at Stanford University using standard procedures. […] A CRC-15R PET dose calibrator (Capintec Inc., Ramseb, N.J.) was used for all radioactivity measurements. […]
To further characterize the distribution of ^18F-FDG, tumors and other organs were removed from the sacrificed mice (n=4) and subjected to fiber optic imaging as mentioned above. Inset figure on top right corner of each organ in FIG. 3.6(a) represents average Cerenkov radiance detected by a 6 mm fiber optic bundle. FIG. 3.6(b) represents biodistribution of ^18F-FDG in various tissues at one hour post injection in mice as measured using optical signals from radionuclides. […]

[3] = tested on: primary bladder tumor; settings: primary bladder tumor in humans; cited from earlier work

tumor uptake over time ([1]; from 0.5-2 h): increased over time
Substance: 2-deoxy-2-[^18F]fluoro-D-glucose [[^18F]FDG]
tumor localization ([1]; radioactive OI and microPET, 0.5-2 h p.i.): preferentially localized and was retained in C6-fluc tumors
ex vivo distribution in tumors and normal organs ([1]; radioactive OI of removed tissues, 2.1 h p.i.): High activity was mainly observed from the tumor and heart tissue samples
in vivo tracer uptake by fiber bundle signal ([2]; 900 μCi i.v., 90 minutes post-injection): Relatively high signals from the subcutaneous tumor and brain
ex vivo tissue distribution by fiber bundle signal ([2]; one hour post injection): High signal was mainly observed from the tumor, heart, brain, and kidney tissue samples
standard uptake value (SUV) [3]: ~4.5
